# Measurements reported in ChEMBL document CHEMBL1201862, “PubChem BioAssay data set” (2004).
# Active and inactive are the calls of the source.
# How the values were obtained:
# [1] = target: CAAX prenyl protease 1 (Saccharomyces cerevisiae S288c, UniProt P47154); experiment: yeast CAAX protease Ste24 inhibition – biochemical, S. cerevisiae, plate reader, cherry-pick, dose response (AID 488815)
# [2] = target: CAAX prenyl protease 2 (Homo sapiens, UniProt Q9Y256); experiment: inhibition of Ras-converting CAAX protease Rce1 – biochemical, yeast membranes, quenched-peptide fluorescence, cherry-pick, dose response (AID 588849)
# [3] = test system: HEK293; experiment: inhibition of NOD1-driven NF-kB reporter – cell-based, luminescence, uHTS, primary screen (AID 1578); format: functional; conditions: Homo sapiens
# [4] = test system: HEK293; experiment: cells; format: functional, cell-based; conditions: Homo sapiens
# [5] = test system: HEK293; experiment: cells; format: functional, cell-based; conditions: Homo sapiens; remark: listed apart in the source
# [6] = target: Nucleotide-binding oligomerization domain-containing protein 2 (Homo sapiens, UniProt Q9HC29); experiment: inhibition of NOD2-driven NF-kB reporter – cell-based, luminescence, uHTS, HEK293 (AID 1566); format: functional
# [7] = test system: HEK293; experiment: NOD2 signaling inhibitors in MDP-stimulated cells, cell-based, uHTS, luminescence (AID 2001); format: functional; conditions: Homo sapiens
# [8] = test system: HEK293; experiment: cells; format: functional, cell-based; conditions: Homo sapiens; remark: listed apart in the source
# [9] = target: T1, RNA-binding protein pos-1 (Caenorhabditis elegans, UniProt G5EF15); experiment: disruptors of C. elegans POS-1 RNA interaction – biochemical, fluorescence polarization, dose response (AID 1964);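 note: purified POS-1 fused to maltose binding protein made in E. coli; potency of compounds blocking POS-1 binding to fluorescent RNA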
# T1 sequence (G5EF15 whole entry): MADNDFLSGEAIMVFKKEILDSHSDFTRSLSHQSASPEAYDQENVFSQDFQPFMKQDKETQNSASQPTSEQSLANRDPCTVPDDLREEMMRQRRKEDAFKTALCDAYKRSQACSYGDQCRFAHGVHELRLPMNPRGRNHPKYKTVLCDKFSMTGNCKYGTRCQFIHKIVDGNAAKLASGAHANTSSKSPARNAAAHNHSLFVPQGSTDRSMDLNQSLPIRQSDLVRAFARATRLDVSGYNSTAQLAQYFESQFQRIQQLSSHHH
# [10] = target: T2, Zinc finger protein mex-5 (Caenorhabditis elegans, UniProt Q9XUB2); experiment: potency of MEX-5 RNA-binding blockers – biochemical, C. elegans, fluorescence polarization, dose response (AID 1960)
# T2 sequence (Q9XUB2 whole entry): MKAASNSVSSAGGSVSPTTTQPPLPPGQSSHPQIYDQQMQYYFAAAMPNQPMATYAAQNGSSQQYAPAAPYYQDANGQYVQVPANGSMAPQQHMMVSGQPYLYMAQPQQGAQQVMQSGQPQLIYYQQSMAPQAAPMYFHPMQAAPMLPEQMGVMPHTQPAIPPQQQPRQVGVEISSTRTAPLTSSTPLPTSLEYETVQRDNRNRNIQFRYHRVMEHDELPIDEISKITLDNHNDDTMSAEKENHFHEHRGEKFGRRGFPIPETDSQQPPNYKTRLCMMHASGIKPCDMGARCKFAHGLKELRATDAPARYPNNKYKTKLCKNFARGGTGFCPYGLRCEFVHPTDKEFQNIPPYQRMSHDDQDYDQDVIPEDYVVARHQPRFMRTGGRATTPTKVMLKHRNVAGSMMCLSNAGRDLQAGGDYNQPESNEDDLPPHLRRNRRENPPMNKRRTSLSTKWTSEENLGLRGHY
# [11] = target: Beta-lactamase (Pseudomonas aeruginosa, UniProt Q79MP6);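 note: biochemical dose-response test of metallo-beta-lactamase enzyme inhibition, read out by epi-absorbance; purified recombinant IMP-1 metallo-beta-lactamase with nitrocefin as substrate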
# [12] = target: Beta-lactamase (Salmonella choleraesuis (strain SC-B67), UniProt Q5J463)
# [13] = target: UDP-galactopyranose mutase (Mycobacterium tuberculosis, UniProt P9WIQ1); experiment: Inhibitors of Mycobacterium tuberculosis UDP-galactopyranose mutase (UGM) enzyme Measured in Biochemical System Using Plate Reader - 2105-02_Inhibitor_Dose_CherryPick_Activity. [Related pubchem assays (depositor defined):AID504439]
# [14] = target: Keap1/Nrf2 (Homo sapiens, UniProt Q14145); experiment: disruptors of Keap1 binding to Nrf2 peptide – biochemical, fluorescence polarization, cherry-picked samples, dose response (AID 588683)
# [15] = test system: HeLa; experiment: viability loss in HeLa cells – cell-based, 24 h, cherry-picked samples, cytotoxicity control, dose response (AID 504726); format: functional; conditions: Homo sapiens;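 note: potency for cytotoxicity as loss of luminescence signal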
# [16] = target: ORF 73 (Human herpesvirus 8, UniProt O40947); experiment: KSHV LANA DNA-binding disruption – biochemical, fluorescence polarization, cherry-picked samples, dose response (AID 504725); design: species or system Human gammaherpesvirus 8;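 note: fluorescence polarization of a labeled DNA duplex reporting LANA DNA binding; potency is for inhibitors that block LANA binding to the DNA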
# [17] = target: Cytochrome P450 2C19 (Homo sapiens, UniProt P33261); experiment: Cytochrome panel assay with activity outcomes. Panel member name: p450-cyp2c19 Compounds with AC50 equal or less than 10 uM are considered active; format: functional
# [18] = target: Cytochrome P450 2C9 (Homo sapiens, UniProt P11712)
# [19] = target: Cytochrome P450 2D6 (Homo sapiens, UniProt P10635);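 note: CYP2D6 member of a cytochrome P450 panel assay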
# [20] = target: T3, Cytochrome P450 1A2 (Homo sapiens, UniProt P05177);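 note: PubChem cytochrome P450 panel assay, CYP1A2 panel member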
# T3 sequence (P05177 whole entry): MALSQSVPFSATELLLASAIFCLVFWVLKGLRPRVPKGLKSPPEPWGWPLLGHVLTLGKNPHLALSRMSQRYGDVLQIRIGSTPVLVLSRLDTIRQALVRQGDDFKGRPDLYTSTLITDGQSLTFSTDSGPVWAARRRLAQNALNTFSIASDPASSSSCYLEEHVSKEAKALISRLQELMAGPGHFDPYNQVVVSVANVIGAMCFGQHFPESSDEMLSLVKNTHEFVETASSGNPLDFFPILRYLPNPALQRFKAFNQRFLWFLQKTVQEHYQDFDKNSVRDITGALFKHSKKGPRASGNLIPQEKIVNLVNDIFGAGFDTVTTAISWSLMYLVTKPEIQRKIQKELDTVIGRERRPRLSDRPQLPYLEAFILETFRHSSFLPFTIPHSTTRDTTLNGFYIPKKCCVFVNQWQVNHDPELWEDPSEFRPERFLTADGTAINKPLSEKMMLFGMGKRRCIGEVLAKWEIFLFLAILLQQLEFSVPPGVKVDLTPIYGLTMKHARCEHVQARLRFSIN
# [21] = target: Cytochrome P450 3A4 (Homo sapiens, UniProt P08684);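 note: CYP3A4 tested as one member of a cytochrome P450 panel screen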
# [22] = luciferase reporter signal suppression in cells – H4 neuroglioma cells, luminescence, dose response (AID 1990); format: functional, cell-based
# [23] = Luminescence Cell-Based Dose Response HTS to Identify Inhibitors of 5'UTR Stem-Loop Driven Prion Protein mRNA Translation in H4 Neuroglioblastoma Cells. [Related pubchem assays: 1827 (Project Summary), 1813 (Primary HTS)]; format: functional
# [24] = alpha-synuclein stem-loop luciferase translation blockers – H4 neuroglioma cells, luminescence, confirmation (AID 1988); format: functional, cell-based
# [25] = test system: HEK293; experiment: cells; format: functional, cell-based; conditions: Homo sapiens; remark: listed apart in the source
# [26] = target: T4, Nuclear receptor subfamily 0 group B member 1 (Homo sapiens, UniProt P51843); experiment: Luminescence-based cell-based high throughput dose response assay for inhibitors of the orphan nuclear receptor subfamily 0, group B, member 1 (DAX1; NR0B1). [Related pubchem assays (depositor defined):AID504766, AID504790]; format: functional
# T4 sequence (P51843 whole entry): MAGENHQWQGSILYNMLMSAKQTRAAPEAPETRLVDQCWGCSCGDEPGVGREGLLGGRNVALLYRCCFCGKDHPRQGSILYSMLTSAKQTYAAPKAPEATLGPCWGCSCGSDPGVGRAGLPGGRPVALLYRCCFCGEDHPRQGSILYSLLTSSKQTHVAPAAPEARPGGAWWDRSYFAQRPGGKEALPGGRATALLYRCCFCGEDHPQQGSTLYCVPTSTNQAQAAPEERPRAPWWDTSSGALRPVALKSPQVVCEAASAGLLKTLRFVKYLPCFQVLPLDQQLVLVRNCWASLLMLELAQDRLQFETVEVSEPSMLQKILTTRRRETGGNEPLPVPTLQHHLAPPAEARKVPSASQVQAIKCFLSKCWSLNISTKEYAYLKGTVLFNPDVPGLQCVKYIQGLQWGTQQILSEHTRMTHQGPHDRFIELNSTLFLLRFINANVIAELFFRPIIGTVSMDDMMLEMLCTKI
# [27] = target: T3, Cytochrome P450 1A2; remark: listed apart in the source
# [28] = target: Trypsin (Sus scrofa, UniProt P00761); experiment: trypsin protease activity blockade – biochemical, quenched peptide fluorescence, cherry-pick, selectivity assay for Rce1 protease inhibitor project, dose response (AID 488789)
# [29] = target: CAAX prenyl protease 2 (Saccharomyces cerevisiae S288c, UniProt Q03530); format: biochemical
# [30] = Luminescence Cell-Based Dose Response HTS to Identify Activators of Luciferase Translation or Activity in H4 […] Cells. [Related pubchem assays: 1829 (Project Summary), 1814 (Primary HTS)]; format: functional
# [31] = test system: H4; experiment: Luminescence Cell-Based Dose Response HTS to Identify Activators of 5'UTR Stem-Loop Driven Prion Protein mRNA Translation in H4 Neuroglioblastoma Cells. [Related pubchem assays: 1829 (Project Summary), 1814 (Primary HTS)]; format: functional; conditions: Homo sapiens
# [32] = test system: HeLa; experiment: ATP-based viability loss in HeLa cells – cell-based, CellTiter-Glo luminescence, cherry-pick samples, cytotoxicity control for MITF activator project, dose response (AID 540259); format: functional; conditions: Homo sapiens
# [33] = target: Luciferin 4-monooxygenase (Photinus pyralis, UniProt P08659); experiment: inhibition of purified Photinus pyralis luciferase – biochemical, luminescence, dose response (AID 1891)
# [34] = Luminescence Cell-Based Dose Confirmation HTS to Identify Inhibitors of Platelet Dense Granule Release. [Related pubchem assays: 1663 (Primary HTS), 1678 (Summary of Project)]; format: functional
# Sequence of Cytochrome P450 2C9 (P11712 whole entry): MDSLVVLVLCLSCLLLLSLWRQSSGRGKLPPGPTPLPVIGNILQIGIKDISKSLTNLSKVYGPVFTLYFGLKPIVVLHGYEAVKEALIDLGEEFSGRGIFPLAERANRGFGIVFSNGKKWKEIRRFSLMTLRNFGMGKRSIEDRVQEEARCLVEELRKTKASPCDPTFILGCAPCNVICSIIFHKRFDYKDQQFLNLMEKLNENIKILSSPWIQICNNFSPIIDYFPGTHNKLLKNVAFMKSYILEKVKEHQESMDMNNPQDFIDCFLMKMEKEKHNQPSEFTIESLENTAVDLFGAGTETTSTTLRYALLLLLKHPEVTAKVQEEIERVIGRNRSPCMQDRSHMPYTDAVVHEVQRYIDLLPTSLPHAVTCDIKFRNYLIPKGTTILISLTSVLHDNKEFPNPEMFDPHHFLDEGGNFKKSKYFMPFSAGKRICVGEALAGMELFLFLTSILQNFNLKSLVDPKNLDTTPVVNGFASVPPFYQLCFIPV
# Sequence of Keap1/Nrf2 (Q16236 whole entry): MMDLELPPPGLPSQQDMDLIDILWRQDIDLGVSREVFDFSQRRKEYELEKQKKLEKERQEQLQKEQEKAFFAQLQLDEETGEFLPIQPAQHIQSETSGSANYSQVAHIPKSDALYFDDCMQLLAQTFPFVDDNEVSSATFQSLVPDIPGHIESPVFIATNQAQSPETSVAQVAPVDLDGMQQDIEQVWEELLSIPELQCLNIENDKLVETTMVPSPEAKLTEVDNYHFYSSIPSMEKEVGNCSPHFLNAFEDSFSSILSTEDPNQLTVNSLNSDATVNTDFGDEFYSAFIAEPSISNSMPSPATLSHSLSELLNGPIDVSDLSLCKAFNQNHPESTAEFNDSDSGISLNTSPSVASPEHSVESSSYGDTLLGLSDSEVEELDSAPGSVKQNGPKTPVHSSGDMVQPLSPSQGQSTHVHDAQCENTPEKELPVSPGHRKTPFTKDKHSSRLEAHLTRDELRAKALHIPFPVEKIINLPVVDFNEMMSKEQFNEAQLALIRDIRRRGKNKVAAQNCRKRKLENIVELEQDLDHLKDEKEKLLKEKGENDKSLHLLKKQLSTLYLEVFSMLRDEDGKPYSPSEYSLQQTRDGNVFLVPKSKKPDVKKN
# Sequence of Keap1/Nrf2 (Q14145 whole entry): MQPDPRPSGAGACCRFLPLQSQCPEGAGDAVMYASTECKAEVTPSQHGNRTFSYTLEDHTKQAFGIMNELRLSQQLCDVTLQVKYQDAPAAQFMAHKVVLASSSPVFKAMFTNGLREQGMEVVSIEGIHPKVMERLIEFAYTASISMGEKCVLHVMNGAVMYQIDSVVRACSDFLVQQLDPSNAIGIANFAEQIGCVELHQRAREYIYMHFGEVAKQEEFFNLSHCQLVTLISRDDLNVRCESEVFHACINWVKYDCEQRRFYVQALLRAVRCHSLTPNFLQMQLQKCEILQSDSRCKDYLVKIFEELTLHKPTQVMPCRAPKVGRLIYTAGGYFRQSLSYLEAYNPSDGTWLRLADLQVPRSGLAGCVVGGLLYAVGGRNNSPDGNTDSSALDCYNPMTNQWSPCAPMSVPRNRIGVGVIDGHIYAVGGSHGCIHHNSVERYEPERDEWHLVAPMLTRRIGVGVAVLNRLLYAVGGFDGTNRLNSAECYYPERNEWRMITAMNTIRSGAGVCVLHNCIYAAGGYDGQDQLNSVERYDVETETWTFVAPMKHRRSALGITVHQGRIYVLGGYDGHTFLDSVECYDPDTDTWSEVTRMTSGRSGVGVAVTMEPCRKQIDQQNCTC
# Sequence of UDP-galactopyranose mutase (P9WIQ1 whole entry): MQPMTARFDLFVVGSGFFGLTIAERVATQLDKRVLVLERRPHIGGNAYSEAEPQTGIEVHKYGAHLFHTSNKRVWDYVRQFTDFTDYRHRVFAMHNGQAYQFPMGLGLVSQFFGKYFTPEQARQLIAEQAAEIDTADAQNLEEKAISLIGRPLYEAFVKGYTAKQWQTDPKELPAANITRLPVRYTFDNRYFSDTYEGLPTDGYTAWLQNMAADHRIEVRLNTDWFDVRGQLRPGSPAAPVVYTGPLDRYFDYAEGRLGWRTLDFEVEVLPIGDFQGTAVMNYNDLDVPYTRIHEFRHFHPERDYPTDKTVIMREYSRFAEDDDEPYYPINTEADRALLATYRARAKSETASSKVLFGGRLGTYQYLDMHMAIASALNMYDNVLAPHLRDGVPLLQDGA
# Sequence of Cytochrome P450 2C19 (P33261 whole entry): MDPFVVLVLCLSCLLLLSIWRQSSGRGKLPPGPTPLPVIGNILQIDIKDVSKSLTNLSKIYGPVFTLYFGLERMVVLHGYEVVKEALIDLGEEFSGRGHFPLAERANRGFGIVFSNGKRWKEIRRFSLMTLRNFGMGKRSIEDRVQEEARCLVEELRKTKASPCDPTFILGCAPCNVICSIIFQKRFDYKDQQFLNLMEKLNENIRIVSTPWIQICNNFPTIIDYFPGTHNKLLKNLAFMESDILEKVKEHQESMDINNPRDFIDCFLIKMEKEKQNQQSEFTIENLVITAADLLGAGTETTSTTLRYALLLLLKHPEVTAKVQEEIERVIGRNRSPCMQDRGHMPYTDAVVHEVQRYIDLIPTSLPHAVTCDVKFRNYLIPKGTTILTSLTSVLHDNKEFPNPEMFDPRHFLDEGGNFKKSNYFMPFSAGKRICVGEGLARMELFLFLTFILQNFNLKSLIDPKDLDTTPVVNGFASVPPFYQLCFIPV
# Sequence of Cytochrome P450 3A4 (P08684 whole entry): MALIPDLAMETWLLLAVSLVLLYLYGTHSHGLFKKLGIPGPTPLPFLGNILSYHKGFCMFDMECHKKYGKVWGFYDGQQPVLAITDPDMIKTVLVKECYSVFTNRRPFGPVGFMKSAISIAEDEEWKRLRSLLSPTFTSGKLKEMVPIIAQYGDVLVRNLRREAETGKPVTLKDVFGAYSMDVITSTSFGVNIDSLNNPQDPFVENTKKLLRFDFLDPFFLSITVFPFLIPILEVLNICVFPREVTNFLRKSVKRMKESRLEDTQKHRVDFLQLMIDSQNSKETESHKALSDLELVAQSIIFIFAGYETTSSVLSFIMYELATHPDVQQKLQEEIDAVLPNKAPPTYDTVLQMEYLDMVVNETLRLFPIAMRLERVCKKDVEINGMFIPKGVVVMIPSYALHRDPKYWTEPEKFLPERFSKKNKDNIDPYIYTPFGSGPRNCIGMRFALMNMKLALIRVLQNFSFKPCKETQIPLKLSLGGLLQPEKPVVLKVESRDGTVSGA
# Sequence of Nucleotide-binding oligomerization domain-containing protein 2 (Q9HC29 whole entry, the tested form may be a part): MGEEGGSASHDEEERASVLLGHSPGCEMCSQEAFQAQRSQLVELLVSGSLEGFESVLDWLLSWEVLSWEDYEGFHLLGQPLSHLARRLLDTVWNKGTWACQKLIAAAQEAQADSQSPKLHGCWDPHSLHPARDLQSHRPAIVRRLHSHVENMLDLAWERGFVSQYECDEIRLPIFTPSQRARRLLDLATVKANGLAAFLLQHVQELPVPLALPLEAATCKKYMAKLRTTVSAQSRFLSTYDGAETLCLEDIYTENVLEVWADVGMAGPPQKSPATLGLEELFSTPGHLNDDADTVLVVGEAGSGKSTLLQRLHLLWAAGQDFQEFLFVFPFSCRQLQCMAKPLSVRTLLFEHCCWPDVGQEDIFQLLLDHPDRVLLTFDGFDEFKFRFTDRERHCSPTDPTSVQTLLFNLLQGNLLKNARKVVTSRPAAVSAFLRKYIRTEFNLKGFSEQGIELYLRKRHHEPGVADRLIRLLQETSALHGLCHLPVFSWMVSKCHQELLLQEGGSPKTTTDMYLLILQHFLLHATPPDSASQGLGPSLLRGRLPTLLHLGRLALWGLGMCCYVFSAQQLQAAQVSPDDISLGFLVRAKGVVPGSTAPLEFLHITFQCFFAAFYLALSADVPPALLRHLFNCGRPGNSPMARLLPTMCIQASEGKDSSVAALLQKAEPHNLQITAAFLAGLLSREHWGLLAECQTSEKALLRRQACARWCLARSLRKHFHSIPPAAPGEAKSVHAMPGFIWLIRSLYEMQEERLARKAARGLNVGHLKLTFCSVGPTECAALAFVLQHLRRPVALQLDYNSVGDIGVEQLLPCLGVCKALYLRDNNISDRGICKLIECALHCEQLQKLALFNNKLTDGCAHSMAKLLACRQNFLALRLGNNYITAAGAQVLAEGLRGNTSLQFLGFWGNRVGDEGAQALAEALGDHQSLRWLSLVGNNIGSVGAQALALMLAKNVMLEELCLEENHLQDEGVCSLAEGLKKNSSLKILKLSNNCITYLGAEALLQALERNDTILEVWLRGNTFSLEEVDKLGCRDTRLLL
# Sequence of CAAX prenyl protease 2 (Homo sapiens, UniProt Q9Y256) (Q9Y256 whole entry): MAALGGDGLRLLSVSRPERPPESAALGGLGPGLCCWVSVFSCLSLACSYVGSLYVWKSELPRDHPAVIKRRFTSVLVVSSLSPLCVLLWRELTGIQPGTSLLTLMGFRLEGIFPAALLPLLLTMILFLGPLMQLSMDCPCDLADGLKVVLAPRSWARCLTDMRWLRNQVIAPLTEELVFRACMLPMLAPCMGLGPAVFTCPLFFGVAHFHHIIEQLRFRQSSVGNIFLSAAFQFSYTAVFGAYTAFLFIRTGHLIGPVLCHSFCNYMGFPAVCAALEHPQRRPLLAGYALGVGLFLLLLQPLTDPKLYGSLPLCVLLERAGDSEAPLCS
# Sequence of Cytochrome P450 2D6 (P10635 whole entry): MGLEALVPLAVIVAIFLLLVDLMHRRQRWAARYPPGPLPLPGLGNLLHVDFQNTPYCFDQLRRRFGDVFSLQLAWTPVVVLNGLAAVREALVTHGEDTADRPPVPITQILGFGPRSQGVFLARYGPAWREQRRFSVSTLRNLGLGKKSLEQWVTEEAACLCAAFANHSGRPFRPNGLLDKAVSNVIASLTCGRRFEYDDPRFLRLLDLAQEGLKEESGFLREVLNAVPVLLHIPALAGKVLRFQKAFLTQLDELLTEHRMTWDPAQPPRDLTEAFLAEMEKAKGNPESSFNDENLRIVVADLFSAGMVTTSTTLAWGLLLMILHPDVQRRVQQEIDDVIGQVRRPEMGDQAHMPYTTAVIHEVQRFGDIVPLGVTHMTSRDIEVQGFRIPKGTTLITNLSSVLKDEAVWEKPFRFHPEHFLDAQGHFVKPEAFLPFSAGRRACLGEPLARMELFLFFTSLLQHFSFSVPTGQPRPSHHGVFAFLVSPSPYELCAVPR
structure (smiles),measurement,setting,value
COCc1cc(C)n(CC(=O)NCc2ccccc2)c(=O)c1C#N,AC50,[1],7.22 µM (active)
same,AC50,[2],25.8 µM (active)
Cc1cc(/C=C2\SC(=S)N(C)C2=O)c(C)n1-c1cccc(O)c1,EC50,[3],9.29 µM (active)
same,IC50,[4],4.55 µM (active)
same,IC50,[5],9.54 µM (active)
same,EC50,[6],1.1 µM (active)
same,IC50,[7],0.695 µM (active)
same,IC50,[8],> 20 µM (inactive)
CN1C(=O)c2cccc3c(N)ccc(c23)C1=O,EC50,[9],0.363 µM (inconclusive)
same,EC50,[10],0.116 µM (inconclusive)
same,IC50,[11],10.5 µM (inactive)
same,IC50,[12],5.56 µM (active)
same,AC50,[13],1.59 µM (active)
same,AC50,[14],0.839 µM (active)
CN1C(=O)C(=N)c2c3ccccc3c(O)c3c(Br)ccc1c23,EC50,[9],0.66 µM (inconclusive)
same,EC50,[10],< 0.06 µM (inconclusive)
same,AC50,[15],303 µM (active)
same,AC50,[16],2.73 µM (active)
same,AC50,[13],0.519 µM (active)
same,AC50,[14],0.54 µM (active)
O=C(O)c1cc(/N=N\c2ccc(S(=O)(=O)Nc3ccccn3)cc2)ccc1O,AC50,[17],inactive
same,AC50,[18],7.94 µM (inconclusive)
same,AC50,[19],inactive
same,AC50,[20],inactive
same,AC50,[21],inactive
CC(C)COc1ccc(C(=O)Nc2sc3c(c2C(=O)O)CC(C)(C)OC3)cc1,EC50,[22],11.3 µM (active)
same,EC50,[3],2.59 µM (active)
same,IC50,[4],> 20 µM (inactive)
same,EC50,[23],11.2 µM (active)
same,EC50,[24],> 120 µM (not active)
same,IC50,[5],> 20 µM (inactive)
same,EC50,[6],0.22 µM (active)
same,IC50,[7],5.19 µM (active)
same,IC50,[8],12.6 µM (active)
O=C(c1ccc2c(c1)N(Cc1ccccc1)C(=O)CS2)N1CCOCC1,AC50,[17]; read-out: AC50,28.2 µM (inconclusive)
same,AC50,[18],14.1 µM (inconclusive)
same,AC50,[20],inconclusive
CC1(C)Nc2ccccc2C(=O)N1c1ccc(Br)cc1,IC50,[25],> 67.5 µM (inactive)
same,IC50,[26],> 67.5 µM (inactive)
COc1ccc(-n2c(=O)c(-c3ccccc3)nc3cnc(N4CCN(C)CC4)nc32)cc1,AC50,[27],20 µM (inconclusive)
same,AC50,[18],31.6 µM (inconclusive)
same,AC50,[21],inconclusive
CS(=O)(=O)Nc1ccc(C2=NN(S(C)(=O)=O)C(c3cccs3)C2)cc1 (stereo not drawn),AC50,[28],4.41 µM (active)
same,AC50,[29],6.27 µM (active)
same,AC50,[2],2.38 µM (active)
CC(=O)NNc1ncnc2ccccc12,IC50,[25],> 67.5 µM (inactive)
same,IC50,[26],> 67.5 µM (inactive)
CCn1c(C(=O)OC)cc2c1ccn2-c1ccc(F)cc1,EC50,[30],69.7 µM (active)
same,EC50,[31],> 120 µM (not active)
same,AC50,[32],91.9 µM (active)
COc1ccccc1NC(=O)Nc1ccc(C(=O)N2CCCCC2)cc1,EC50,[33],2.01 µM (active)
same,EC50,[34],6.67 µM (active)
same,AC50,[32],67 µM (active)
